# Measurements from US5607926A, “Cephalosporin antibiotics” (Microcide Pharmaceuticals, Inc., priority 1995, dated 1997).
# Structures can show the parent of a compound that is named as a salt. Where two headings read alike, the source gives them in different places.
# Legend:
# Type in all cases: cell-based
# [1] = tested on: S. epidermidis ATCC 31432; assay: In vitro antibacterial evaluation, MIC by agar dilution, S. epidermidis ATCC 31432; conditions: Staphylococcus epidermidis, ATCC31432
# In short: (§1)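 Minimum inhibitory concentrations came from the NCCLS agar dilution method in Mueller-Hinton agar. Each isolate received about 10^4 cfu per spot, and plates were read after 16-20 hours at 35°-36° C.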
# E. faecalis ATCC 29212 = assay: In vitro antibacterial evaluation, MIC by agar dilution, E. faecalis ATCC 29212; conditions: Enterococcus faecalis, ATCC29212
# In short: as §1
# S. haemolyticus (Meth^R) = assay: In vitro antibacterial evaluation, MIC by agar dilution, S. haemolyticus; conditions: Staphylococcus haemolyticus, read-out: MIC
# In short: as §1
# E. coli ATCC 25922 = assay: In vitro antibacterial evaluation, MIC by agar dilution, E. coli ATCC 25922; conditions: Escherichia coli, ATCC25922, read-out: MIC
# In short: as §1
# S. aureus ATCC 25923 = assay: In vitro antibacterial evaluation, MIC by agar dilution, S. aureus ATCC 25923; conditions: Staphylococcus aureus, ATCC25923
# Method: The compounds of the invention were evaluated against several β-lactamresistant bacteria strains by determining the minimum inhibitory concentration (MIC, μg/ml) of each compound with respect to each strain. The MIC, the lowest concentration of antibiotic which inhibits growth of the test organism, was determined by the agar dilution method.
# To determine the MIC for bacterial isolates, the test compound was incorporated in a series of two-fold dilutions into liquified Mueller-Hinton agar. Upon solidification, a number of different bacterial strains were spot inoculated with a replicating device onto the agar surface. […] The procedures used in these studies have been standardized by the National Committee for Clinical Laboratory Standards (NCCLS), as per the NCCLS publication entitled METHODS FOR DILUTION ANTIMICROBIAL SUSCEPTIBILITY TESTS (1991), which is incorporated herein by reference.
# Aliquots of antimicrobial agents were prepared in phosphate buffered saline (PBS) at pH 7.2. Tween 20 or DMSO was used as a solubilizing vehicle as needed. Standard methods of vortexing, sonicating and gentle heat were used to facilitate solubilizing the test agent. Typically, the concentration of the stock solution was 10× that of the highest drug concentration tested. A 1.28 mg/mL stock solution was used with a subsequent highest working concentration of 128 μg/mL. Serial two-fold dilutions were done through ≤0.25 μg/mL. Each drug level was tested in duplicate. Two-fold drug dilutions were done in sterile 50 mL tubes with a final drug volume of 5 mL. Upon the addition of 45 mL of molten agar, a 10-fold dilution resulted. Two, 25 mL. plates were then poured into 15×150 mm square Petri plates with grids and allowed to harden.
# A control plate with a reference drug, either cefotaxime, vancomycin or imipenem, was used as the positive growth control. Stock concentrations of reference antibiotics were prepared and frozen at -80° C. Upon preparation, the control plates were sealed and stored in the refrigerator for up to 1 week prior to use; however, imipenem control plates had to be prepared just prior to use. All test plates were used within 24 hours of preparation.
# Satisfactory results were obtained where the inoculum contained about 10^4 colony forming units (cfu) ±0.5 logs. Starting with pure cultures of the test isolates on agar plates, a few isolated colonies were transferred to a tube of nutrient broth and allowed to grow 4-6 hours at 35°-36° C. to reach log-phase growth. Dropwise addition of the broth culture to PBS was done to match a 0.5 McFarland turbidity standard equal to 10^8 cfu/mL. This was further diluted ten-fold in PBS to reach a working inoculum concentration of 10^7 cfu/mL. When 1 μL of the working inoculum was applied to the agar surface a concentration of about 10^4 cfu per spot was obtained.
# Disposable sterile 1 μL loops were used to inoculate test plates, with each isolate in a designated grid on the agar plate. An alternate method of inoculation involved the use of a replica plater, a device with 48 steel pins allowing the simultaneous inoculation of multiple isolates. After the spots had dried, the plates were incubated at 35°-36° C. for 16-20 hours. Endpoints were assessed as the minimum inhibitory concentration (MIC) of antimicrobial agent.
# P. aeruginosa ATCC 27853 = assay: In vitro antibacterial evaluation, MIC by agar dilution, P. aeruginosa ATCC 27853; conditions: Pseudomonas aeruginosa, ATCC27853, read-out: MIC
# In short: as §1
# E. faecium ATCC 35667 = assay: In vitro antibacterial evaluation, MIC by agar dilution, E. faecium ATCC 35667; conditions: Enterococcus faecium, ATCC35667, read-out: MIC
# In short: as §1
# [2] = tested on: S. aureus 76 (Meth^R)(lac^+); assay: In vitro antibacterial evaluation, MIC by agar dilution, S. aureus 76; conditions: Staphylococcus aureus, read-out: MIC
# In short: as §1
# S. aureus ATCC 29213 = assay: In vitro antibacterial evaluation, MIC by agar dilution, S. aureus ATCC 29213; conditions: Staphylococcus aureus, ATCC29213
# In short: as §1
# [3] = tested on: S. aureus Col8A (Meth^S)(lac^-); assay: In vitro antibacterial evaluation, MIC by agar dilution, S. aureus Col8A; conditions: Staphylococcus aureus
# In short: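 Agar dilution per NCCLS (1991): two-fold dilutions from 128 μg/mL down to ≤0.25 μg/mL in Mueller-Hinton agar, each level in duplicate. Spots of about 10^4 cfu of log-phase culture; 16-20 h at 35°-36° C. MIC in μg/ml is the lowest concentration inhibiting growth.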
# [4] = E. faecalis ATCC 29212, read-out: MIC
# [5] = S. aureus ATCC 29213, read-out: MIC
Structure (SMILES),MIC [1] [µg/mL],MIC (E. faecalis ATCC 29212) [µg/mL],MIC (S. haemolyticus (Meth^R)) [µg/mL],MIC (E. coli ATCC 25922) [µg/mL],MIC (S. aureus ATCC 25923) [µg/mL],MIC (P. aeruginosa ATCC 27853) [µg/mL],MIC (E. faecium ATCC 35667) [µg/mL],MIC [2] [µg/mL],MIC (S. aureus ATCC 29213) [µg/mL],MIC [3] [µg/mL],"MIC ([1]; S. epidermidis ATCC 31432, read-out: MIC) [µg/mL]",MIC (E. faecalis ATCC 29212; [4]) [µg/mL],"MIC (S. aureus ATCC 25923; S. aureus ATCC 25923, read-out: MIC) [µg/mL]",MIC (S. aureus ATCC 29213; [5]) [µg/mL]
"O=C(Cc1ccccc1)N[C@@H]1C(=O)N2C(C(=O)O)=C(Sc3snnc3-c3ccccc3)CS[C@H]12 [Cmpd 93, (7R)-7-[(Phenylacetyl)amino]-3-(4-phenyl-1,2,3-thiadiazol-5-ylthio)-3-cephem-4-carboxylic acid]",< 0.25,< 0.25,8,> 32,< 0.25,> 32,0.5,8,< 0.25,< 0.25,–,–,–,–
"Nc1nc(/C(=N/OCCF)C(=O)N[C@@H]2C(=O)N3C(C(=O)O)=C(Sc4ccnn4-c4ccccc4)CS[C@H]23)cs1 [Cmpd 90, (7R)-7-[(Z)-2-(aminothiazol-4-yl)-2-(2-fluoroethyloxyimino)acetamido]-3-(1-N-phenylpyrazol-5-ylthio)-3-cephem-4-carboxylic acid]",–,–,32,4,–,16,16,16,–,1,< 0.25,32,0.5,1
O=C1CNC(SCc2ccccc2SC2=C(C(=O)O)N3C(=O)[C@@H](NC(=O)Cc4ccccc4)[C@H]3SC2)=N1 [Cmpd 68],< 0.25,–,32,> 32,< 0.25,> 32,4,16,< 0.25,< 0.25,–,4,–,–
"N#Cc1ccc(SC2=C(C(=O)O)N3C(=O)[C@@H](NC(=O)Cc4ccccc4)[C@H]3SC2)c(C#N)c1 [Cmpd 51, (7R)-7-[(Phenylacetyl)amino]-3-(2,4-dicyanophenylthio)-3-cephem-4-carboxylic acid]",< 0.25,–,32,> 32,< 0.25,> 32,4,8,–,< 0.25,–,4,–,0.5
"N=C(N)SCc1ccccc1SC1=C(C(=O)O)N2C(=O)[C@@H](NC(=O)Cc3ccccc3)[C@H]2SC1 [Cmpd 64, (7R)-7-[(Phenylacetyl)amino]-3-(2-isothiouroniummethylphenylthio)-3-cephem-4-carboxylate, inner salt]",< 0.25,–,8,> 32,< 0.25,> 32,0.5,4,< 0.25,< 0.25,–,1,–,–
"CC(C)Oc1ccccc1SC1=C(C(=O)O)N2C(=O)[C@@H](NC(=O)Cc3ccccc3)[C@H]2SC1 [Cmpd 47, (7R)-7-[(Phenylacetyl)amino]-3-(2-iso-propyloxyphenylthio)-3-cephem-4-carboxylic acid]",< 0.25,–,16,> 32,< 0.25,> 32,2,8,–,< 0.25,–,4,–,–
"CC(C)(C)c1ccccc1SC1=C(C(=O)O)N2C(=O)[C@@H](NC(=O)Cc3ccccc3)[C@H]2SC1 [Cmpd 46, (7R)-7-[(Phenylacetyl)amino]-3-(2-tert-butylphenylthio)-3-cephem-4-carboxylic acid]",< 0.25,–,16,> 32,< 0.25,> 32,2,8,–,< 0.25,–,2,–,–
"O=Cc1ccccc1SC1=C(C(=O)O)N2C(=O)[C@@H](NC(=O)Cc3ccccc3)[C@H]2SC1 [Cmpd 50, (7R)-7-[(Phenylacetyl)amino]-3-(2-formylphenylthio)-3-cephem-4-carboxylic acid]",< 0.25,–,8,8,< 0.25,> 32,4,8,–,< 0.25,–,4,–,–
"O=C(Cc1ccccc1)N[C@@H]1C(=O)N2C(C(=O)O)=C(Sc3ccc(CSC4=NCCN4)cc3I)CS[C@H]12 [Cmpd 59, (7R)-7-[(Phenylacetyl)amino]-3-(4-(2-imidazolin-2-ylthiomethyl)-2-iodophenylthio)-3-cephem-4-carboxylic acid]",< 0.25,–,16,> 32,< 0.25,> 32,4,8,–,< 0.25,–,4,–,–
"O=C(Cc1ccc(Cl)cc1)N[C@@H]1C(=O)N2C(C(=O)O)=C(Sc3cccnc3-c3ccccc3)CS[C@H]12 [Cmpd 84, (7R)-7-[(4-Chlorophenylacetyl)amino]-3-(2-phenylpyridin-3-ylthio)-3-cephem-4-carboxylic acid]",< 0.25,–,8,> 32,< 0.25,> 32,1,8,–,< 0.25,–,1,–,–
"CN(C)C(SCc1ccc(SC2=C(C(=O)[O-])N3C(=O)[C@@H](NC(=O)Cc4ccccc4)[C@H]3SC2)c(I)c1)=[N+](C)C [Cmpd 62, (7R)-7-[(Phenylacetyl)amino]-3-(4-tetra-methylisothiouroniummethyl-2-iodophenylthio)-3-cephem-4-carboxylate, inner salt]",< 0.25,–,32,> 32,< 0.25,> 32,4,16,–,< 0.25,–,2,–,–
"N#CCC(=O)N[C@@H]1C(=O)N2C(C(=O)O)=C(Sc3ccccc3-c3ccccc3)CS[C@H]12 [Cmpd 34, (7R)-7-[(Cyanoacetyl)amino]-3-(2-biphenylthio)-3-cephem-4-carboxylic acid]",< 0.25,–,8,> 32,< 0.25,> 32,2,8,–,< 0.25,–,2,–,–
"N=C(N)NC(=N)SCc1ccc(SC2=C(C(=O)O)N3C(=O)[C@@H](NC(=O)Cc4ccccc4)[C@H]3SC2)c(I)c1 [Cmpd 60, (7R)-7-[(Phenylacetyl)amino]-3-(4-(N-amidino)isothiouroniummethyl-2-iodophenylthio)-3-cephem-4-carboxylate, inner salt]",< 0.25,–,4 to 8,> 32,< 0.25,> 32,1,4,–,< 0.25,–,1,–,–
